Results published in PMC10780202, “Systemic Treatment with Fas-Blocking Peptide Attenuates Apoptosis in Brain Ischemia” (International Journal of Molecular Sciences, 2024).

Legend:
hypoxic-N2a cells = assay: FasL-induced apoptosis in hypoxic N2a cells, Annexin V-PE staining; format: cell-based, mouse; details: hypoxic N2a cells treated with FasL, then peptide; for effect on Fas-mediated apoptosis / cell death compared to control: Fig 1B,C, three independent experiments
Protocol: Figure 1 The inhibitory effect of FBP or leptin-PEG-FBP (L-P-F) on FasL-induced apoptosis in hypoxic-N2a. (A) Schematic illustration of the L-P-F peptide synthesis. (B,C) The N2a cells were cultured in a hypoxic condition in the presence of membrane-bound soluble FasL (5 nM) for 6 h, as described in the Methods section. The cells were then treated with 300 μM of the indicated peptides for 6 h and examined for Annexin V-PE staining. (B) Representative histograms illustrate the percentage of apoptosis with the peptide treatments, depicting live cells (in black) and apoptotic cells (in red). (C) Bar graph represents the percentage of Annexin V positive cells with the peptide treatments. Normoxia describes cells cultured in normal oxygen conditions. Hypoxia describes cells cultured in hypoxic conditions. The bar graph indicates the average ± SD of three independent experiments. The data in (C) was analyzed using Mann–Whitney U test (* p < 0.05; ns: not-significant). TEXT PRINTED IN THE PICTURE: (B) Mock: Annexin V: 86.4 | (B) ctrl-FBP: Annexin V: 82.0 | (B) Leptin: Annexin V: 83.5 | (B) FBP: Annexin V: 54.0 | (B) L-P-F: Annexin V: 56.5 DOUBTS OF THE COPYIST ABOUT THIS PICTURE: Panel B: the gate numbers have no unit or measure printed beside them; 'Annexin V' comes from the axis label printed once at the edge of the panel. / Panel B, Mock: this is a control treatment, not a substance; it is included because a gate value is printed with it. / Small print in panel B, so these digits are not certain: Mock 86.4, ctrl-FBP 82.0, Leptin 83.5, FBP 54.0, L-P-F 56.5.
To evaluate the effect of leptin-PEG-FBP on Fas-mediated apoptosis, hypoxic Neuro2a mouse neuroblastoma (N2a) cells were treated with FasL ([…]), followed by a treatment with the peptides indicated in Figure 1B.
Neuro2a mouse neuroblastoma cells (N2a) were obtained from ATCC (Rockville, MD) and cultured in Dulbecco’s modified Eagle’s medium (DMEM, Gibco) containing 10% fetal bovine serum, penicillin (100 IU/mL), and streptomycin (100 μg/mL). To mimic the in vitro ischemia/reperfusion environment, N2a cells were maintained in a hypoxic condition (94% N2, 5% CO2, 1% O2, 37 °C) in oxygen glucose deprivation media (OGD, Life Technologies, Carlsbad, CA, USA) for 24 h. The cells were then reoxygenated in DMEM supplemented with 10% FBS (5% CO2, 20% O2, 37 °C) for another 24 h and cultured in Dulbecco’s modified Eagle’s medium (DMEM) (Gibco) containing high glucose, supplemented with 10% calf serum and 1% penicillin-streptomycin. To analyze the functional effects of leptin-PEG-FBP, normoxia- and hypoxia-induced N2a cells were seeded in a six-well plate at 2 × 10^5/well with serum-free DMEM and treated with leptin-PEG-FBP at 1 mM for 6 h followed by exposure to a soluble Fas ligand (5 nM). […]

Jurkat cells = assay: FasL-mediated apoptosis in Jurkat cells, Annexin V staining (effect of PEG size); format: cell-based; details: membrane-bound soluble FasL 20 ng/ml, 3 hr, peptides 300 µM, FasL alone approximately 40% apoptosis, three independent experiments, Fig S1
From the text: In a prior study, we observed that the Fas-blocking peptide (FBP) effectively disrupted Fas–FasL interactions, thereby inhibiting Fas-mediated apoptosis both in vitro and in vivo when delivered intranasally. In this study, we explored the impact of FBP through the clinically relevant systemic route of delivery. To conjugate FBP with leptin, a brain-targeting peptide that effectively penetrates the BBB, we employed polyethylene glycol (PEG) as a linker. We initially evaluated the toxicity of PEG of various sizes in Jurkat cells. The treatment of Jurkat cells with membrane-bound FasL induced approximately 40% apoptosis compared to non-FasL (normal) cells. […] Based on our findings, we conjugated PEG-2K to FBP (PEG-FBP) and then linked it with the leptin peptide. […] (Figure S2). The conjugation schematic is illustrated in Figure 1A.
Figure S1. Effect of PEGylation length on apoptosis inhibition by FBP peptides. ( A) Apoptosis in Jurkat cells was assessed 3 hr post- treatment with membrane-bound soluble FasL (20 ng/ml), with and without peptides at a concentration of 300 µM using Annexin V staining. (B-C) Bar graphs illustrating the percentage of cells in early (B) and late (C) apoptosis. The compar ison includes non- treated, ctrl- FBP, FBP, and various PEGylated FBP (1K, 2K, 3.4K, 5K, 10K) after FasL treatment in Jurkat cells. […]

MCAO rat model [1] = assay: TUNEL assay of brain sections of MCAO rats; format: in vivo; details: 48 h post-MCAO
Protocol: Ischemic stroke conditions in rat MCAO models lead to brain damage primarily through apoptosis. To assess the therapeutic effects of leptin-PEG-FBP on Fas-mediated apoptosis, we administrated 5 mg/kg of FBP systemically at 3 h and 6 h post-MCAO. At 48 h post-MCAO, we conducted necropsy to estimate the protein levels of Fas and cleaved caspase-3 in the brain samples. Ischemic stroke induced an elevated level of Fas and cleaved caspase-3, similar to the PBS-treated MCAO rats. […] Approximately 52% of cells were TUNEL-positive in the PBS-treated group, 55% in the PEG-FBP, and 47% in the leptin-treated group (Figure 5B). […]
Figure 5 Leptin-PEG-FBP attenuates apoptosis in the MCAO rat model. […] (A) Representative Western blots and quantification of protein expression for Fas and cleaved caspase-3 in the brain of […] at 48 h post-MCAO. […] (B) Representative microscopy images of TUNEL-stained brain sections (red) and quantification of TUNEL-positive cells in the ischemic region of MCAO after necropsy. (C) Representative microscopy images of cleaved caspase-3-stained brain sections (green) and quantification of positive cells in the ischemic region of MCAO after necropsy. […] Data represent mean ± SD (n = 3 animals per group) and were analyzed using Mann–Whitney U test. […]

MCAO rat model [2] = assay: TTC staining, infarction in MCAO rats; format: in vivo; details: 5 mg/kg i.v., 48 h post-MCAO, n = 5, PBS group 37%, Fig 6A
Protocol: (§1) The induction of apoptosis in the penumbra after MCAO results in brain damage, leading to the formation of infarcts or areas of tissue damage. To examine the impact of leptin-PEG-FBP on brain infraction, we conducted triphenyltetrazolium chloride (TTC) staining at 48 h post-treatment.
(§2) Figure 6 Improvement of MCAO-induced infarction and histopathological changes with leptin-PEG-FBP treatment. MCAO rats were systemically treated with indicated peptides (5 mg/kg, i.v.) at […]. (A) Brain slices stained with TTC after necropsy. Quantitative analysis of infarction is shown on the right. Data represent mean ± SD (n = 5 animals per group). (B) Images of Nissl-stained brain slices (left) and quantitative analysis of infarction volume on the right. (C) Representative images of hematoxylin and eosin (H&E) brain sections from normal or MCAO-subjected animals after treatment. Data were analyzed using Mann–Whitney U test. Data represent the mean ± SD (* […]; ** p < 0.01; ns: not-significant).
Pathology in brain tissues was analyzed by staining 2 mm brain slices in 2% 2,3,5-tryphenyltetrazolium chloride (TTC, Sigma Aldrich, St. Louis, MO, USA) for 15 min at 37 °C. The infarcted volume was calculated after fixation using Image J software version 1.54d, as described.

MCAO rat model [3] = assay: Nissl staining, infarction volume in MCAO rats; format: in vivo; details: 5 mg/kg i.v., 48 h, PBS group around 45%, Fig 6B
Protocol: as §1, §2
Infarcted brain volume was analyzed using Nissl staining. The OCT-embedded brain samples for cryosection were fixed using 4% PFA at room temperature and subjected to 0.1% crystal violet solution following standard protocol. The stained sections were cover-slipped and blindly pictured using full-screening scanner. The infarcted volume was calculated using Image J software version 1.54d.

MCAO rat model [4] = assay: H&E histology of brain sections of MCAO rats; format: in vivo; details: 5 mg/kg i.v., 48 h, Fig 6C
Protocol: as §1, §2
Rats were sacrificed and perfused with PBS. Brains were carefully removed, embedded in OCT compound (Sakura Finetek, Alphen aan den Rijn, The Netherlands), rapidly cryopreserved in frigid isopentane chilled with liquid nitrogen, and stored at −80 °C until the subsequent sectioning procedure. […]

[5] = rat, in vivo, iv
Protocol: Figure S2. Leptin peptide-mediated brain delivery in rats. Biodistribution (left panel)
of A647-conjugated peptides delivered intravenous (n=3) in normal rats. Brain, lung,
liver, spleen and kidney were examined 24 hr post- inoculation. Rats were treated with
RV -M AT , the control peptide and the leptin peptide. Cumulative data (right panel)
show relative fluorescence intensities measured in arbitrary pixel values for examined
tissues. The measurements are compared to the n ormal groupand are based on three
(1 picture or pasted object on this page, not shown here)

[6] = mouse, in vivo, iv, 2.5 mg/kg
Protocol: To confirm the specificity of leptin-mediated FBP delivery to the brain, we systemically administered Alexa^647-conjugated leptin alone, PEG-FBP, and leptin-PEG-FBP in leptin receptor-deficient db/db mice subjected to photothrombosis (Figure 3A).
Wildtype and leptin receptor-deficient (db/db) mice were subjected to photothrombotic stroke, followed by administration of the indicated peptides (2.5 mg/kg Alexa^647-labelled peptides, i.v.). Organs were collected at 12 h post-delivery and imaged on Kodak imaging station. (A,B) Representative images and quantification of fluorescence intensities after necropsy. Control mice were inoculated with PBS. Fluorescence intensities measured in arbitrary pixel values were normalized to fluorescence intensities in the PBS-treated group. The data represent mean ± SD (n = 5 per group). The data in (B) were analyzed using Mann–Whitney U test (* p < 0.05; ** p < 0.01).
(§3) For bio-distribution studies, Alexa^647-conjugated peptides were intravenously (IV) administered at 2.5 mg/kg. […] Fluorescence was analyzed at designated time points. After 12 h inoculation, fluorescence was measured in the brain, lung, liver, spleen, and kidney using image station (Kodak, Stamford, CT, USA).

[7] = rat, in vivo
Protocol: To explore the feasibility of ischemic-specific FBP delivery, we administered Alexa^647-conjugated peptides to a rat middle cerebral artery occlusion (MCAO) ischemic stroke model. The peptides were delivered via the intravenous route (2.5 mg/kg) and the brain and peripheral organs were examined 24 h post-inoculation. […] Next, we conducted an in-depth analysis to validate the localization through confocal microscopy.
Rats underwent middle cerebral artery occlusion, followed by the administration of the indicated Alexa^647-labelled peptides (2.5 mg/kg, i.v.). Organs were harvested 24 h post-inoculation and imaged on Kodak imaging station. […] Control mice were inoculated with PBS.
Acute cerebral ischemia was produced using a 1 h occlusion of the right middle cerebral artery (MCAO) in Sprague–Dawley rats weighing 280–320 g (Orient Bio, Seoul, Republic of Korea), as previously described [76]. […]
as §3

| Sequence | effect on Fas-mediated apoptosis / cell death compared to control (hypoxic-N2a cells) | decrease in Annexin V positivity upon exposure to FasL (hypoxic-N2a cells; Fig 1B) [%] | effect on FasL-mediated apoptosis in Jurkat cells (Jurkat cells) | TUNEL-positive cells in the ischemic region (MCAO rat model [1]; 5 mg/kg i.v. at 3 h and 6 h post-MCAO, confocal, n = 3, PBS group 52%, Fig 5B) [%] | change in TUNEL and cleaved caspase-3 positive cells (MCAO rat model [1]; 5 mg/kg i.v., Fig 5B,C) | infarction volume, TTC staining (MCAO rat model [2]) [%] | infarction volume, Nissl staining (MCAO rat model [3]) [%] | tissue damage in right hemisphere, H&E staining (MCAO rat model [4]) | delivery to the brain compared to negative control peptide RV-MAT [5] | brain delivery in leptin receptor-deficient db/db mice [6] | Alexa647-positive cells in brain sections, confocal microscopy [7] |
| --- | --- | --- | --- | --- | --- | --- | --- | --- | --- | --- | --- |
| YCNSTVCY [ctrl-FBP, control FBP peptide YCNSTVCY] | did not demonstrate a reduction |  |  |  |  |  |  |  |  |  |  |
| YCDEHFCY [FBP] | significantly reduced cell death | 40 | significantly reduced FasL-mediated apoptosis |  |  |  |  |  |  |  |  |
| YQQVLTSLPSQNVLQIANDLENLRDLLHLLGGGC [leptin] | did not demonstrate a reduction |  |  | ~47 | no significant changes | 32 | ~45 | significant damage to the tissue morphology | successful delivery to the brain | did not bind to the brain | strong Alexa^647 positive cells |
